System: MOG35-55-induced EAE in C57BL/6 mice
Experiment: Experimental autoimmune encephalomyelitis (EAE) model
Format: in vivo, mouse
Conditions: for EAE clinical score (0-5): vehicle peak 3.08 ± 0.28
Procedure: EAE studies were conducted at Hooke Laboratories. WT female C57BL/6 mice (Taconic Labs) 9 weeks of age were inoculated on day 0 with MOG35-55 peptide (Hooke Kit™ MOG35-55/CFA Emulsion PTX) (EK-2110, Hooke Laboratories, Lawrence MA) followed by intraperitoneal (IP) injections of pertussis toxin at 2 and 24 hours. Mice were treated twice daily (BID, starting at day 1) per os (PO) with vehicle (0.5% MC/0.25% Tween80) or RORγt inhibitors at indicated doses. FTY720 (Gilenya) was dosed once daily (QD) at 3 mg/kg starting at day 1. EAE clinical scores were evaluated daily and scored from 0–5 according to Hooke Lab EAE scoring guidelines http://hookelabs.com/services/cro/eae/MouseEAEscoring.html. Mean clinical scores & body weight loss were assessed and statistical significance calculated by Wilcoxon’s non-parametric or 2-tailed Student’s t-test, respectively. All studies performed were approved in accordance with the Institutional Animal Care and Use Committee of Bristol Myers Squibb and complied according to Bristol Myers Squibb guidelines.

O=C(O)[C@@H]1CCC(c2nn(C(=O)c3c(Cl)cccc3C(F)(F)F)c3cccc(F)c23)=C[C@H]1O [Compound 3]
EAE clinical score (0-5) (3 mg/kg BID PO): 2.79 ± 0.25
EAE clinical score (0-5) (10 mg/kg BID PO): 2.32 ± 0.21
significant disease onset (30 mg/kg BID PO, vehicle day 12): 15 days
EAE clinical score (0-5) (30 mg/kg BID PO): 1.5 ± 0.27
body weight loss in EAE (maintained for the duration of study): significant reductions in body weight loss

Source: paper PMC8577775, “Small molecule allosteric inhibitors of RORγt block Th17-dependent inflammation and associated gene expression in vivo” (PLoS ONE, 2021)
